Data reported in patent publication US8329706B2, “Oxazolidinone derivatives” (Actelion Pharmaceuticals Ltd., priority 2009, dated 2012).

Legend:
human orexin-2 receptor = molecular target: T1, human orexin-2 receptor (Homo sapiens, UniProt O43614); experiment: FLIPR intracellular calcium assay, orexin receptor antagonistic activity (OX2); assay type: cell-based; settings: CHO cells expressing human orexin-2 receptor; agonist 3 nM orexin-A; normalized to on-plate reference; * geomean n = 5, *2 geomean n = 2
T1 construct: expressed in transfected cells; host or cells: CHO cells (G418 selection)
T1 sequence (O43614 1-444): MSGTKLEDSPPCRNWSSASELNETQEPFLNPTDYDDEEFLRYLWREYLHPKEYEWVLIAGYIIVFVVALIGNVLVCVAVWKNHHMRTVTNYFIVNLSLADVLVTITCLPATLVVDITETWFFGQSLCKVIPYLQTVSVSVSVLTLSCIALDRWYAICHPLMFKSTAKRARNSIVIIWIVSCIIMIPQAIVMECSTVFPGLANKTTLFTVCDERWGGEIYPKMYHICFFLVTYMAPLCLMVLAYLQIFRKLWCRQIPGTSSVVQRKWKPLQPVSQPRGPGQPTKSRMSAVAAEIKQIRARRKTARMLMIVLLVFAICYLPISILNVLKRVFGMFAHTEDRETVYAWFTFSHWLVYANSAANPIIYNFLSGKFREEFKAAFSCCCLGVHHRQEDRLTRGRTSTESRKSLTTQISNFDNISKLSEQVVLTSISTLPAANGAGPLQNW
Experimental: (§1) The orexin receptor antagonistic activity of the compounds of formula (I) is determined in accordance with the following experimental method.
(§2) Chinese hamster ovary (CHO) cells expressing the human orexin-1 receptor and the human orexin-2 receptor, respectively, are grown in culture medium (Ham F-12 with L-Glutamine) containing 300 μg/ml G418, 100 U/ml penicillin, 100 μg/ml streptomycin and 10% heat inactivated fetal calf serum (FCS). The cells are seeded at 20′000 cells/well into 384-well black clear bottom sterile plates (Greiner). The seeded plates are incubated overnight at 37° C. in 5% CO2.
(§3) Human orexin-A as an agonist is prepared as 1 mM stock solution in MeOH:water (1:1), diluted in HBSS containing 0.1% bovine serum albumin (BSA), NaHCO3: 0.375 g/l and 20 mM HEPES for use in the assay at a final concentration of 3 nM.
(§4) Antagonists are prepared as 10 mM stock solution in DMSO, then diluted in 384-well plates using DMSO followed by a transfer of the dilutions into in HBSS containing 0.1% bovine serum albumin (BSA), NaHCO3: 0.375 g/l and 20 mM HEPES. On the day of the assay, 50 μl of staining buffer (HBSS containing 1% FCS, 20 mM HEPES, NaHCO3: 0.375 g/l, 5 mM probenecid (Sigma) and 3 μM of the fluorescent calcium indicator fluo-4 AM (1 mM stock solution in DMSO, containing 10% pluronic) is added to each well. The 384-well cell-plates are incubated for 50 min at 37° C. in 5% CO2 followed by equilibration at rt for 30-120 min before measurement.
(§5) Within the Fluorescent Imaging Plate Reader (FLIPR Tetra, Molecular Devices), antagonists are added to the plate in a volume of 10 μl/well, incubated for 10 min and finally 10 μl/well of agonist is added. Fluorescence is measured for each well at 1 second intervals, and the height of each fluorescence peak is compared to the height of the fluorescence peak induced by 3 nM orexin-A with vehicle in place of antagonist. For each antagonist, the IC50 value (the concentration of compound needed to inhibit 50% of the agonistic response) is determined and normalized using the obtained IC50 value of a on-plate reference compound. Optimized conditions were achieved by adjustment of pipetting speed and cell splitting regime. The calculated IC50 values of the compounds may fluctuate depending on the daily cellular assay performance. Fluctuations of this kind are known to those skilled in the art.

human orexin-1 receptor = molecular target: T2, human orexin-1 receptor (Homo sapiens, UniProt O43613); experiment: FLIPR intracellular calcium assay, orexin receptor antagonistic activity (OX1); assay type: cell-based; settings: CHO cells expressing human orexin-1 receptor; agonist 3 nM orexin-A; normalized to on-plate reference; * geomean n = 5, *2 geomean n = 2
T2 construct: expressed in transfected cells; host or cells: CHO cells (G418 selection)
T2 sequence (O43613 1-425): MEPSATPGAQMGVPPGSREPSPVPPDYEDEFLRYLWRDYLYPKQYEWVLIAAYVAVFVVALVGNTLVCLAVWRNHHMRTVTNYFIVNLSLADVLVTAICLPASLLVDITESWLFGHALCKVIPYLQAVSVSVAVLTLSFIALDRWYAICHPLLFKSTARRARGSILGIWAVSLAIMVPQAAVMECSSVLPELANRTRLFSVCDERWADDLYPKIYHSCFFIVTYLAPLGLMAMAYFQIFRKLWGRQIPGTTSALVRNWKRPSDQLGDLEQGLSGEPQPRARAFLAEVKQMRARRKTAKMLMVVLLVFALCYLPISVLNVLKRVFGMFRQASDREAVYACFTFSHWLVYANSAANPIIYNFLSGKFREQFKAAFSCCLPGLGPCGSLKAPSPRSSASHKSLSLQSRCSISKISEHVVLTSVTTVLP
Experimental: as §1, §2, §3, §4, §5

SMILES | IC50 (human orexin-2 receptor) [nM] | IC50 (human orexin-1 receptor) [nM]
COc1cccc(OC)c1C1OCC(=O)N1Cc1cc(C(F)(F)F)cc(Cl)c1F (centres unmarked) [Example 37, 3-(3-Chloro-2-fluoro-5-trifluoromethyl-benzyl)-2-(2,6-dimethoxy-phenyl)-oxazolidin-4-one] | 477 | 162
COc1cccc(OC)c1C1OCC(=O)N1Cc1cccc(OC(F)(F)F)c1 (centres unmarked) [Example 35, 2-(2,6-Dimethoxy-phenyl)-3-(3-trifluoromethoxy-benzyl)-oxazolidin-4-one] | 618 | 2890
CCOc1ccc(CN2C(=O)C(C)(C)OC2c2c(OC)cccc2OC)cc1 (centres unmarked) [Example 80, 2-(2,6-Dimethoxy-phenyl)-3-(4-ethoxy-benzyl)-5,5-dimethyl-oxazolidin-4-one] | 1940 | 139
COc1cccc(OC)c1C1OC(C)(C)C(=O)N1Cc1ccc(OC(C)C)cc1 (centres unmarked) [Example 76, 2-(2,6-Dimethoxy-phenyl)-3-(4-isopropoxy-benzyl)-5,5-dimethyl-oxazolidin-4-one] | 193 | 114
COc1cccc(OC)c1C1O[C@H](C)C(=O)N1Cc1ccc(OCC2CC2)cc1 (stereo partly drawn) [Example 75, 3-(4-Cyclopropylmethoxy-benzyl)-2-(2,6-dimethoxy-phenyl)-(R)-5-methyl-oxazolidin-4-one] | 123 | 1760
COc1cccc(OC)c1C1O[C@@H](C)C(=O)N1Cc1ccc(Oc2ccccc2)cc1 (stereo partly drawn) [Example 59, 2-(2,6-Dimethoxy-phenyl)-(S)-5-methyl-3-(4-phenoxy-benzyl)-oxazolidin-4-one] | 150 | 2130
COc1cccc(OC)c1C1O[C@H](C)C(=O)N1Cc1ccc(OC(F)(F)F)cc1 (stereo partly drawn) [Example 63, 2-(2,6-Dimethoxy-phenyl)-(R)-5-methyl-3-(4-trifluoromethoxy-benzyl)-oxazolidin-4-one] | 216 | 260
CCOc1ccccc1C1OCC(=O)N1Cc1cccc(OC(F)(F)F)c1 (centres unmarked) [Example 7, 2-(2-Ethoxy-phenyl)-3-(3-trifluoromethoxy-benzyl)-oxazolidin-4-one] | 74 | 6810
COc1cccc(C(F)(F)F)c1C1OC(C)(C)C(=O)N1Cc1ccc(Oc2ccccc2)cc1 (centres unmarked) [Example 86, 2-(2-Methoxy-6-trifluoromethyl-phenyl)-5,5-dimethyl-3-(4-phenoxy-benzyl)-oxazolidin-4-one] | 65 | 2180
COc1cccc(OC)c1C1OCC(=O)N1Cc1ccc(OC(F)(F)F)c(Cl)c1 (centres unmarked) [Example 40, 3-(3-Chloro-4-trifluoromethoxy-benzyl)-2-(2,6-dimethoxy-phenyl)-oxazolidin-4-one] | 29 | 198
COc1cccc(OC)c1C1OC(C)(C)C(=O)N1Cc1ccc2ccccc2c1 (centres unmarked) [Example 57, 2-(2,6-Dimethoxy-phenyl)-5,5-dimethyl-3-naphthalen-2-ylmethyl-oxazolidin-4-one] | 151 | 5
COc1cccc(OC)c1C1OCC(=O)N1Cc1ccc(Cl)c(F)c1 (centres unmarked) [Example 39, 3-(4-Chloro-3-fluoro-benzyl)-2-(2,6-dimethoxy-phenyl)-oxazolidin-4-one] | 795 | 4100
COc1cccc(OC)c1C1OCC(=O)N1Cc1ccc(OC(F)F)cc1 (centres unmarked) [Example 49, 3-(4-Difluoromethoxy-benzyl)-2-(2,6-dimethoxy-phenyl)-oxazolidin-4-one] | 113 | 2990
COc1cccc(OC)c1C1OCC(=O)N1Cc1ccc(Oc2ccccc2)cc1 (centres unmarked) [Example 47, 2-(2,6-Dimethoxy-phenyl)-3-(4-phenoxy-benzyl)-oxazolidin-4-one] | 68 | 1180
COc1cccc(OC)c1C1O[C@H](C)C(=O)N1Cc1nc2ccccc2s1 (stereo partly drawn) [Example 62, 3-Benzothiazol-2-ylmethyl-2-(2,6-dimethoxy-phenyl)-(R)-5-methyl-oxazolidin-4-one] | 193 | 2870
COc1cccc(OC)c1C1OC(C)(C)C(=O)N1Cc1ccc(OCC2CC2)cc1 (centres unmarked) [Example 78, 3-(4-Cyclopropylmethoxy-benzyl)-2-(2,6-dimethoxy-phenyl)-5,5-dimethyl-oxazolidin-4-one] | 620 | 472
COCCOc1cccc(OC)c1C1OC(C)(C)C(=O)N1Cc1ccc(Oc2ccccc2)cc1 (centres unmarked) [Example 98, 2-[2-Methoxy-6-(2-methoxy-ethoxy)-phenyl]-5,5-dimethyl-3-(4-phenoxy-benzyl)-oxazolidin-4-one] | 366 | 345
CCOc1ccccc1C1OCC(=O)N1Cc1ccc(C(F)(F)F)cc1 (centres unmarked) [Example 3, 2-(2-Ethoxy-phenyl)-3-(4-trifluoromethyl-benzyl)-oxazolidin-4-one] | 230 | 9990

The remaining lines, values ahead:

IC50 (human orexin-2 receptor) [nM] | IC50 (human orexin-1 receptor) [nM] | SMILES
363 | > 10000 | CCOc1ccccc1C1OCC(=O)N1Cc1cccc(C)c1 (centres unmarked) [Example 24, 2-(2-Ethoxy-phenyl)-3-(3-methyl-benzyl)-oxazolidin-4-one]
870 | 1740 | CCOc1ccccc1C1OCC(=O)N1Cc1ccccc1Cl (centres unmarked) [Example 45, 3-(2-Chloro-benzyl)-2-(2-ethoxy-phenyl)-oxazolidin-4-one]
586 | 9600 | CCOc1ccccc1C1OCC(=O)N1Cc1ccc(Cl)cc1F (centres unmarked) [Example 19, 3-(4-Chloro-2-fluoro-benzyl)-2-(2-ethoxy-phenyl)-oxazolidin-4-one]
263 | 6490 | CCOc1ccccc1C1OCC(=O)N1Cc1ccc(Cl)c(C(F)(F)F)c1 (centres unmarked) [Example 1, 3-(4-Chloro-3-trifluoromethyl-benzyl)-2-(2-ethoxy-phenyl)-oxazolidin-4-one]
385 | 5410 | CCOc1ccccc1C1OCC(=O)N1Cc1cccc(C(F)(F)F)c1C (centres unmarked) [Example 11, 2-(2-Ethoxy-phenyl)-3-(2-methyl-3-trifluoromethyl-benzyl)-oxazolidin-4-one]
652 | > 10000 | CCOc1ccccc1C1OCC(=O)N1Cc1ccc(F)c(F)c1 (centres unmarked) [Example 26, 3-(3,4-Difluoro-benzyl)-2-(2-ethoxy-phenyl)-oxazolidin-4-one]
661 | 8020 | CCOc1ccccc1C1OCC(=O)N1Cc1cc(C)ccc1C(F)(F)F (centres unmarked) [Example 28, 2-(2-Ethoxy-phenyl)-3-(5-methyl-2-trifluoromethyl-benzyl)-oxazolidin-4-one]
634 | 7600 | CCOc1ccccc1C1OCC(=O)N1Cc1ccc(C)c(Cl)c1 (centres unmarked) [Example 31, 3-(3-Chloro-4-methyl-benzyl)-2-(2-ethoxy-phenyl)-oxazolidin-4-one]
223 | > 10000 | CCOc1ccccc1C1OCC(=O)N1Cc1ccccc1C (centres unmarked) [Example 2, 2-(2-Ethoxy-phenyl)-3-(2-methyl-benzyl)-oxazolidin-4-one]
627 | 9370 | CCOc1ccccc1C1OCC(=O)N1Cc1ccc(Cl)c(F)c1 (centres unmarked) [Example 17, 3-(4-Chloro-3-fluoro-benzyl)-2-(2-ethoxy-phenyl)-oxazolidin-4-one]
